How the values were obtained:
[1] = system: advanced solid tumours; assay: Tumour evaluation according to RECIST; type: in vivo, human
Experimental: Before treatment, a complete medical history was recorded and a physical examination performed. A complete blood count (CBC) including white blood cell differential and serum biochemistry, which involved sodium, potassium, calcium, urea, creatinine, uric acid, total protein, albumin, total bilirubin, alkaline phosphatase, γ-glutamyl transferase, aspartate aminotransferase, alanine aminotransferase, lactate dehydrogenase and glucose, were performed, as were urinalysis, pregnancy test, relevant tumour markers, electrocardiogram and a chest X-ray. The electrocardiogram was also performed 2 and 24 h after the first drug administration in the first and second cycles. Weekly evaluations included history, physical examination, toxicity assessment according to the CTC criteria version 2.0, and serum chemistries. Complete blood count was determined twice weekly. Tumour evaluation was performed after every two courses according to the Response Evaluation Criteria in Solid Tumours (RECIST) ([Therasse et al, 2000]). Patients were taken off protocol at the onset of disease progression.

[2] = system: rats; conditions: 14-day oral administration schedule; cited from earlier work
[3] = system: dogs; conditions: cited from earlier work
[4] = system: animals; conditions: in animals; cited from earlier work
[5] = rats; cited from earlier work
[6] = system: multidrug-resistant cells overexpressing P-gp or MRP, cells with downregulation of topoisomerase II levels; design: method as in Di Nicolantonio et al, 2002; conditions: cells overexpressing P-gp or MRP or with downregulated topoisomerase II; ref Di Nicolantonio et al, 2002; cited from earlier work

COc1cccc2c1ccc1nc3cccc(C(=O)N[C@H](C)CN(C)C)c3nc12 [XR11576, 4-methoxy-benzo[a]phenazine-11-carboxylic acid (2-dimethulamino-1-R-methyl-ethyl)-amide]
objective responses ([1]; 21 assessable patients): No objective responses
stable disease, median duration ([1]; in vivo): 12 weeks
stable disease, range of duration ([1]; in vivo): 12–30 weeks
patients with stabilisation of disease ([1]; melanoma, cervical cancer and parotid cancer): Four patients
maximum tolerated dose (MTD) [2]: 150 mg m^−2
maximum tolerated dose (MTD) ([3]; 8/9-day oral administration schedule): 200 mg m^−2
toxicities observed ([3]; i.v. doses repeatedly administered): myocarditis and nephritis
predominantly induced toxicity [4]: bone marrow and gastrointestinal toxicity
oral availability [5]: 54±32%
activity against resistant cells [6]: active

Reference: PMC2409936, “Phase I and pharmacokinetic study of XR11576, an oral topoisomerase I and II inhibitor, administered on days 1–5 of a 3-weekly cycle in patients with advanced solid tumours” (British Journal of Cancer, 2004)
